# Assay results from patent publication US20220241409A1, “WATER SOLUBLE ADJUVANT AND COMPOSITION CONTAINING SAME” (Sumitomo Dainippon Pharma Co., Ltd., priority 2019, published 2022).
# Legend:
# human TLR7 = biological target: T1, human TLR7 (Homo sapiens, UniProt Q9NYK1); assay: Human TLR7 reporter gene assay (Test 1); type: cell-based; conditions: half-maximal SEAP induction, TLR7/NF-κB/SEAPorter HEK293 cell line, overnight 37° C., 0.1% DMSO
# T1 construct: expresses full-length human TLR7 and secretory alkaline phosphatase (SEAP) reporter gene; host or cells: TLR7/NF-κB/SEAPorter HEK293 cell line
# T1 sequence (Q9NYK1 27-1049): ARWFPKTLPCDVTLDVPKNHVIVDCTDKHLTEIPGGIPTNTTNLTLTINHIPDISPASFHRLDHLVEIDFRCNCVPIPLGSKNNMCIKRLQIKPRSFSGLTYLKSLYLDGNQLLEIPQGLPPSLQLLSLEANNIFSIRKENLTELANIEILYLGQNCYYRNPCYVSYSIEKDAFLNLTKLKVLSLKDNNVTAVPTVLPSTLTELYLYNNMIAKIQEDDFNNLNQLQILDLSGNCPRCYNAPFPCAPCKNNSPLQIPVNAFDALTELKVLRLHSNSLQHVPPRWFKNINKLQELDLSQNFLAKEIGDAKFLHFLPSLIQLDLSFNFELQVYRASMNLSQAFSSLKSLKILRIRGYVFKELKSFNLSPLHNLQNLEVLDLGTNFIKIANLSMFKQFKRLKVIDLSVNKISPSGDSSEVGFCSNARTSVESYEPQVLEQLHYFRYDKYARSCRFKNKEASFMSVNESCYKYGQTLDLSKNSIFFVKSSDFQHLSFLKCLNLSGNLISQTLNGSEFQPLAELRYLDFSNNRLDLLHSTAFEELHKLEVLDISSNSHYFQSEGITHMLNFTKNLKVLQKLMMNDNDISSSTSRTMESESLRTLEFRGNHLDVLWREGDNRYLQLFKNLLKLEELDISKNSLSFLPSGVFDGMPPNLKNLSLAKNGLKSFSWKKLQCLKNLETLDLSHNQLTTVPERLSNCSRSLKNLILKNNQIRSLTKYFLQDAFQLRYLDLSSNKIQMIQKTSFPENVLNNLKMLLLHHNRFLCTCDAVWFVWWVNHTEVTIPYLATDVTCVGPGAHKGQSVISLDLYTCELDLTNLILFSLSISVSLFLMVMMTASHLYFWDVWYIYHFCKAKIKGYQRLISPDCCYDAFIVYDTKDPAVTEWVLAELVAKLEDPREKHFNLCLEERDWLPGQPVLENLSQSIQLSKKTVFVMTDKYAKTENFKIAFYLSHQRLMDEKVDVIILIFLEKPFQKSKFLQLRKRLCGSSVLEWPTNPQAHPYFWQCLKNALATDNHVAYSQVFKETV
# Text: TLR7/NF-κB/SEAPorter™ HEK293 cell line (Imgenex Corporation) is a stably co-transfected cell line which expresses full-length human TLR7 and secretory alkaline phosphatase (SEAP) reporter gene under the transcriptional regulation of an NF-κB response element. The TLR7 expression of the cell line has been already tested by flow cytometry. Transfectants with stable expression were selected using the antibiotic blasticidin and Geneticin. TLR signaling leads to the translocation of NF-κB and the activation of the promoter results in expression of the SEAP gene. TLR7-specific activation was assessed by determining the level of SEAP produced following overnight incubation of the cells at 37° C. with each compound prepared in Examples and Reference examples in the presence of 0.1% (v/v) dimethylsulfoxide (DMSO). The human TLR7 activity for the present compound was assessed by human TLR7 reporter gene assay, and the results are shown in Tables 6 and 7 as the compound concentration which produced half of the maximal level of SEAP induction (EC50).
# mouse TLR7 = biological target: T2, mouse TLR7 (Mus musculus, UniProt P58681); assay: Mouse TLR7 reporter gene assay (Test 2); type: cell-based; conditions: half-maximal SEAP induction, HEK-Blue mTLR7 cell line, overnight 37° C., 0.1% DMSO
# T2 construct: expresses full-length mouse TLR7 and secretory SEAP reporter gene; host or cells: HEK-Blue mTLR7 cell line
# T2 sequence (P58681 27-1050): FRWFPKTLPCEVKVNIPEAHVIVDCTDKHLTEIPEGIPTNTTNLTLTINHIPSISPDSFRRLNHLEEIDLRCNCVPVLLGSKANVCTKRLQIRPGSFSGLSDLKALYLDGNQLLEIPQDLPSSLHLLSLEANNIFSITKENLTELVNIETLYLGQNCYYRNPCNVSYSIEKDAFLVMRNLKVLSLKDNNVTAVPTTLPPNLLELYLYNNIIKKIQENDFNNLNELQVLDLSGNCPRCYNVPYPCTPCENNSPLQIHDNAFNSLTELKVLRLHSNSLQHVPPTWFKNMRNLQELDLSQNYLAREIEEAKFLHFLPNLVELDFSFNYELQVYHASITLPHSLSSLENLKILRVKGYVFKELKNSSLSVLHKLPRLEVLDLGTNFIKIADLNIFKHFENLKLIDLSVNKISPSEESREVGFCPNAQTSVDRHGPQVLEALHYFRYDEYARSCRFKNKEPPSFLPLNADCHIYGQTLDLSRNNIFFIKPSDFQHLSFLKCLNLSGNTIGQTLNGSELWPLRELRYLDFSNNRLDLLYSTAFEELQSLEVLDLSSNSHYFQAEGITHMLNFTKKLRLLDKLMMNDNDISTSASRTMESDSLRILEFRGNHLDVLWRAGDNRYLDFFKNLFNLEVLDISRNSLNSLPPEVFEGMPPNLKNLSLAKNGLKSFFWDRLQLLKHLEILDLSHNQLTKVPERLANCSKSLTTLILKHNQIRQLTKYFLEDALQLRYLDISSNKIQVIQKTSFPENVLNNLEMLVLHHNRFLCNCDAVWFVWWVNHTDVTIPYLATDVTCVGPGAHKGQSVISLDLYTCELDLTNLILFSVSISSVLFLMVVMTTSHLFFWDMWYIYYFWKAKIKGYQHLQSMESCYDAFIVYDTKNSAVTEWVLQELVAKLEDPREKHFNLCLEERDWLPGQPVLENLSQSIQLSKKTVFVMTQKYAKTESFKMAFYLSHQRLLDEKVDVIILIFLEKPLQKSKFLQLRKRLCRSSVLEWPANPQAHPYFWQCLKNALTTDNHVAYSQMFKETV
# Text: HEK-Blue™ mTLR7 cell line (Invivogen) is a stably co-transfected cell line which expresses full-length mouse TLR7 and secretory SEAP reporter gene under the transcriptional regulation of an NF-κB response element. The TLR7 expression of the cell line has been already tested by RT-PCR. Transfectants with stable expression were selected using the antibiotic blasticidin and Zeocin. TLR signaling leads to the translocation of NF-κB and the activation of the promoter results in expression of the SEAP gene. TLR7-specific activation was assessed by determining the level of SEAP produced following overnight incubation of the cells at 37° C. with each compound prepared in Examples and Reference examples in the presence of 0.1% (v/v) DMSO. The mouse TLR7 activity for the present compound was assessed by mouse TLR7 reporter gene assay, and the results are shown in Tables 8 and 9 as the compound concentration which produced half of the maximal level of SEAP induction (EC50).
# [1] = test system: HLA-A*02:01 transgenic mouse; assay: In vivo adjuvant activity, CTL induction with vaccine b, IFNγ ELISPOT (Test 18); conditions: 0.04 nmol per body added to vaccine b versus no compound; twice
# Procedure: The in vivo adjuvant activity of the compound of Example 6 was evaluated in the following procedure. To vaccine b like Test 17 was added the compound prepared in Example 6 to prepare a vaccine. The vaccine was administered to a HLA-A*02:01 transgenic mouse, and the adjuvant activity of the vaccine was evaluated by the method of testing antigen-specific CTL induction.
# Specifically, Compound of formula 4 and Peptide SEQ ID No. 3 were dissolved in DMSO, and then diluted with water for injection to concentrations of Compound of formula 4 of 3 mg/mL and Peptide SEQ ID No. 3 of 2.25 mg/mL. The diluted peptide solution was mixed and emulsified with an equal volume of Montanide ISA 51 VG to prepare vaccine b. Vaccine b was injected to mice intradermally at the tail base area in an amount for administering 300 μg of Compound of formula 4 per body and 225 μg of Peptide SEQ ID No. 3 per body. Or, in the step of preparing vaccine b, the compound prepared in Example 6 was added to the diluted peptide solution to prepare a vaccine, and the prepared vaccine was injected to mice intradermally at the tail base area in an amount for administering 300 μg of Compound of formula 4 per body, 225 μg of Peptide SEQ ID No. 3 per body, and 0.04 nmol of the compound prepared in Example 6 per body. […] Then, after removal of the supernatant from the wells, stained spots on the ELISPOT plate were counted.
# [2] = test system: HLA-A*02:01 transgenic mouse; assay: In vivo adjuvant activity, CTL induction with vaccine b, IFNγ ELISPOT (Test 17); conditions: 0.04 nmol or 0.4 nmol per body added to vaccine b versus no compound; twice
# Procedure: The in vivo adjuvant activity of the compounds prepared in Examples 7, 8, and 9 was evaluated in the following procedure. To vaccine b comprising Compound of formula 4 prepared in Reference example 9 and Peptide SEQ ID No. 3 prepared in Reference example 3 with Montanide ISA51 VG was added the compound prepared in Example 7, 8, or 9 to prepare each vaccine. The vaccine was administered to a HLA-A*02:01 transgenic mouse, and the adjuvant activity of each vaccine was evaluated by the method of testing antigen-specific CTL induction.
# Specifically, Compound of formula 4 and Peptide SEQ ID No. 3 were dissolved in DMSO, and then diluted with water for injection to concentrations of Compound of formula 4 of 3 mg/mL and Peptide SEQ ID No. 3 of 2.25 mg/mL. The diluted peptide solution was mixed and emulsified with an equal volume of Montanide ISA 51 VG to prepare vaccine b. Vaccine b was injected to mice intradermally at the tail base area in an amount for administering 300 μg of Compound of formula 4 per body and 225 μg of Peptide SEQ ID No. 3 per body. […] Then, after removal of the supernatant from the wells, stained spots on the ELISPOT plate were counted.
Compound,"EC50 (human TLR7; Table 6, Examples) [nM]",CTL counts responsive to Peptide SEQ ID No. 5 [2],also measured
"CCCCOc1nc(N)c2[nH]c(=O)n(Cc3ccc(CN(C)CCOCCOCCOCCOCCO)cn3)c2n1 [Example 1, 6-amino-2-butoxy-9-{[5-(16-hydroxy-2-methyl-5,8,11,14-tetraoxa-2-azahexadecan-1-yl)pyridin-2-yl]methyl}-7,9-dihydro-8H-purin-8-one.trifluoroacetate]",150,–,"EC50 (mouse TLR7; Table 8, Examples): 1450 nM"
"COCCOc1nc(N)c2[nH]c(=O)n(Cc3ccc(CN(C)CCOCCOCCOCCOCCO)cc3)c2n1 [Example 4, 6-amino-9-{[4-(16-hydroxy-2-methyl-5,8,11,14-tetraoxa-2-azahexadecan-1-yl)phenyl]methyl}-2-(2-methoxyethoxy)-7,9-dihydro-8H-purin-8-one]",5300,–,–
"CCCCOc1nc(N)c2[nH]c(=O)n(Cc3ccc(CN(CCOCCOCCOCCO)CCOCCOCCOCCO)nc3)c2n1 [Example 6, 6-Amino-2-butoxy-9-({6-[13-hydroxy-2-(2-{2-[2-(2-hydroxyethoxy)ethoxy]ethoxy}ethyl)-5,8,11-trioxa-2-azatridecan-1-yl]pyridin-3-yl}methyl)-7,9-dihydro-8H-purin-8-one]",–,–,CTL counts responsive to Peptide SEQ ID No. 5 [1]: more
"CCCCOc1nc(N)c2[nH]c(=O)n(Cc3ccc(CN(C)CCOCCOCCOCCOCCOCCOCCOCCOCCOCCO)nc3)c2n1 [Example 7, 6-Amino-2-butoxy-9-{[6-(31-hydroxy-2-methyl-5,8,11,14,17,20,23,26,29-nonaoxa-2-azahentriacontan-1-yl)pyridin-3-yl]methyl}-7,9-dihydro-8H-purin-8-one]",–,more,–
"CCCCOc1nc(N)c2[nH]c(=O)n(Cc3ccc(CN(C)CCOCCOCCOCCOCCOCCOCCOCCOCCOCCOCCOCCOCCOCCOCCOCCOCCOCCOCCOCCOCCOCCOCCOCCO)nc3)c2n1 [Example 8, 6-Amino-2-butoxy-9-{[6-(73-hydroxy-2-methyl-5,8,11,14,17,20,23,26,29,32,35,38,41,44,47,50,53,56,59,62,65,68,71-tricosaoxa-2-azatriheptacontan-1-yl)pyridin-3-yl]methyl}-7,9-dihydro-8H-purin-8-one]",–,more,–
"CCCCOc1nc(N)c2[nH]c(=O)n(Cc3ccc(CNC)cn3)c2n1 [compound 13, reference compound]",–,–,"EC50 (human TLR7; Table 7, Reference examples): 82 nM; EC50 (mouse TLR7; Table 9, Reference examples): 279 nM"
